In patent publication US20090170897A1, “Method of Treating Neuropathic Pain” (Pfizer, Inc., priority 2004, published 2009):

Tests used:
[1] = system: Streptozocin (STZ)-induced diabetes neuropathy in the rat; assay: STZ-induced dynamic allodynia (cotton bud, PWL); assay type: in vivo
Method: (§1) Male Sprague Dawley rats weighing 150-400 g obtained from Charles River (Manston, Kent, UK.) were housed in groups of 3. All animals were kept under a 12 h light/dark cycle (lights on at 07 h 00 min) with food and water ad libitum. All experiments were carried out by an observer blind to the treatments and in accordance with the Home Office Animals (Scientific Procedures) Act 1986.
(§2) Diabetes was induced by a single intraperitoneal injection of streptozotocin (50 mg/kg) freshly dissolved in 0.9% sterile saline. Streptozotocin injection induces a reproducible mechanical allodynia within 3 weeks, lasting for at least 7 weeks (Chen and Pan, (Chen S R and Pan H L. Hypersensitivity of Spinothalamic Tract Neurons Associated With Diabetic Neuropathic Pain in Rats. J Neurophysiol 87: 2726-2733, 2002).
Dynamic allodynia was assessed by lightly stroking the plantar surface of the hind paw with a cotton bud. To avoid recording general motor activity, care was taken to perform this procedure in fully habituated rats that were not active. At least two measurements were taken at each time point, the mean of which represented the paw withdrawal latency (PWL). […] A pain withdrawal response was often accompanied with repeated flinching or licking of the paw. Dynamic allodynia was considered to be present if animals responded to the cotton stimulus within 8 sec of commencing stroking (Field et al, 1999).
(§3) All the experiments were conducted blind. Static allodynia was expressed as median [LQ; UQ] and analysed by Mann Whitney U test. Dynamic allodynia and thermal hyperalgesia were expressed as arithmetic mean±SEM and analysed by ANOVA.

CRTH2 receptor = biological target: T1, CRTH2 receptor (Homo sapiens, UniProt Q9Y5Y4); assay: competition binding of 3H-PGD2 at CRTH2 and DP receptors (selectivity); conditions: competition with 3H-PGD2 binding, IC50 at both receptors
T1 construct: Flag peptide (behind a 'prolac' signal peptide) (N); expressed in transfected cells
T1 sequence (Q9Y5Y4 1-395): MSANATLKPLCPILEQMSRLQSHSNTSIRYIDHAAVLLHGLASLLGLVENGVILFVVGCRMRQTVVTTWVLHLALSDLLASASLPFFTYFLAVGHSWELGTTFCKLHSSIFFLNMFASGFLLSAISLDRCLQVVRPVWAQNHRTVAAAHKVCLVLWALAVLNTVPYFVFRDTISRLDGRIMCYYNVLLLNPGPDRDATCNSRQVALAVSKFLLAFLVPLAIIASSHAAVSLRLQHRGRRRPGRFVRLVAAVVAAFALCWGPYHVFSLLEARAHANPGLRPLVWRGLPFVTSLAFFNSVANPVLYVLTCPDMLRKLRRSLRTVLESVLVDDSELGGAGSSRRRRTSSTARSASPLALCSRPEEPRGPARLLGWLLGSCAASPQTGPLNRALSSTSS
Method: A CRTH2 receptor ligand or antagonist, can be tested for selectivity for the CRTH2 receptor in comparison with DP. In the assay, the capacity of each test compound to compete with binding of ^3H-PGD2 is measured at both the CRTH2 and DP receptors, and an IC50 value (in μM) is determined. Controls can be set up using cold PGD2 to compete with ^3H-PGD2. Any of the above mentioned binding assay procedures can be used. Selectivity of CRTH2 receptor antagonists should be at least 10 fold compared to other GPCRs especially the D type of prostanoid receptor or DP receptor (N-cyclopropyl-N-[2-methyl-1-(pyridine-3-carbonyl)-1,2,3,4-tetrahydro-quinolin-4-yl]-acetamide is >50 fold selective), preferably it should be at least 100 fold selective and even more preferably at least 1000 fold selective, alternatively the antagonist should be selective for CRTH2 receptor over any of the receptors C3a, C5a, FMLP, LTB4, GPCR0269, GPCR0232 or GPCR0288.

[2] = system: Chronic Constriction Injury (CCI) rat model of neuropathic pain; assay: CCI-induced static allodynia (von Frey hairs, PWT); assay type: in vivo
Method: as §1
The CCI of sciatic nerve was performed as previously described by Bennett and Xie (Bennett G J, Xie Y K. A peripheral mononeuropathy in rat that produces disorders of pain sensation like those seen in man. Pain:33:87-107, 1988). Animals were anaesthetised with a 2% isofluorane/O2 mixture. The right hind thigh was shaved and swabbed with 1% iodine. Animals were then transferred to a homeothermic blanket for the duration of the procedure and anaesthesia maintained during surgery via a nose cone. The skin was cut along the line of the thighbone. The common sciatic nerve was exposed at the middle of the thigh by blunt dissection through biceps femoris. About 7 mm of nerve was freed proximal to the sciatic trifurcation, by inserting forceps under the nerve and the nerve gently lifted out of the thigh. Suture was pulled under the nerve using forceps and tied in a simple knot until slight resistance was felt and then double knotted. The procedure was repeated until 4 ligatures (4-0 silk) were tied loosely around the nerve with approx 1 mm spacing. The incision was closed in layers.
(§4) Animals were habituated to wire bottom test cages prior to the assessment of allodynia. Static allodynia was evaluated by application of von Frey hairs (Stoelting, Wood Dale, Ill., USA.) in ascending order of force (0.6, 1, 1.4, 2, 4, 6, 8, 10, 15 and 26 grams) to the plantar surface of hind paws. Each von Frey hair was applied to the paw for a maximum of 6 sec, or until a withdrawal response occurred. Once a withdrawal response to a von Frey hair was established, the paw was re-tested, starting with the filament below the one that produced a withdrawal, and subsequently with the remaining filaments in descending force sequence until no withdrawal occurred. The highest force of 26 g lifted the paw as well as eliciting a response, thus represented the cut off point. Each animal had both hind paws tested in this manner. The lowest amount of force required to elicit a response was recorded as paw withdrawal threshold (PWT) in grams. Static allodynia was defined as present if animals responded to a stimulus of, or less than, 4 g, which is innocuous in naive rats (Field M J, Bramwell S, Hughes J, Singh L. Detection of static and dynamic components of mechanical allodynia in rat models of neuropathic pain: are they signalled by distinct primary sensory neurones? Pain, 1999; 83:303-11).
as §3

[3] = system: Streptozocin (STZ)-induced diabetes neuropathy in the rat; assay: STZ-induced static allodynia (von Frey hairs, PWT); assay type: in vivo
Method: as §1, §2, §4, §3

[4] = compound level in rat CSF after oral administration; assay type: in vivo
Method: Moreover the antagonist produced a long lasting anti-hyperalgesic effect in the CITH rat model. N-cyclopropyl-N-[2-methyl-1-(pyridine-3-carbonyl)-1,2,3,4-tetrahydro-quinolin-4-yl]-acetamide was dosed in the rat blood and CSF at various time points after oral administration.

[5] = 25 mg/kg PO, post compound dose
[6] = compound 25 mg/kg PO, gabapentin 100 mg/kg PO (positive control)

selectivity for CRTH2 receptor compared to DP receptor (CRTH2 receptor): > 50 fold
blood brain barrier penetration [4]: appears to cross the blood brain barrier
SMILES: CC(=O)N(C1CC1)C1CC(C)N(C(=O)c2cccnc2)c2ccccc21 (stereo not shown) [N-cyclopropyl-N-[2-methyl-1-(pyridine-3-carbonyl)-1,2,3,4-tetrahydro-quinolin-4-yl]-acetamide]
duration of biologically relevant effect, STZ dynamic allodynia ([1]; 25 mg/kg PO): up to 2 hr
time of peak effect, STZ dynamic allodynia [1, 5]: 1 h
effect on maintenance of STZ-induced dynamic allodynia [1, 6]: reversed
time of peak effect, static allodynia ([2]; 25 mg/kg PO (MED), post administration): 1 h
effect on maintenance of CCI-induced static allodynia ([2]; 12.5, 25 and 50 mg/kg PO, from 14 days post surgery): reversed the maintenance of CCI-induced static and dynamic allodynia in a dose dependent manner
MED, static allodynia ([2]; PO): 25 mg/kg
static allodynia reversal relative to gabapentin ([2]; highest dose (50 mg/kg PO) vs gabapentin 100 mg/kg PO): curve profile comparable to gabapentin
onset of anti-allodynic effect, static allodynia ([2]; highest dose (50 mg/kg PO), post dose, p<0.01 vs vehicle): 30 min
duration of biologically relevant effect, STZ static allodynia ([3]; 25 mg/kg PO): up to 2 hr
time of peak effect, STZ static allodynia [3, 5]: 1 h
effect on maintenance of STZ-induced static allodynia [3, 6]: reversed
